Measurements as given in the supplement of paper PMC10307832.

Tests used:
Assay in all cases: relative viability (nuclei count vs DMSO), 5 days (fraction); higher = more cells survive
COR-L23 = test system: COR-L23
How it was run: (§1)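 Each reported value is a median over duplicate plates. It expresses relative viability: treated-well nuclei count divided by vehicle-well nuclei count. Lung cancer cell lines in 1536-well plates were dosed by pin tool a day after seeding, alone with one drug or with a fixed anchor-drug dose plus five library-drug doses (not always all listed) in √10 steps, and nuclei were counted after 5 days.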

COR-L 105 = test system: COR-L 105
How it was run: as §1

NCI-H596 = test system: NCI-H596
How it was run: as §1

LCLC-103H = test system: LCLC-103H
How it was run: as §1

NCI-H1651 = test system: NCI-H1651
How it was run: as §1

SK-MES-1 = test system: SK-MES-1
How it was run: as §1

NCI-H1975 = test system: NCI-H1975
How it was run: as §1

PC-14 = test system: PC-14
How it was run: as §1

NCI-H2023 = test system: NCI-H2023
How it was run: as §1

NCI-H650 = test system: NCI-H650
How it was run: as §1

EPLC-272H = test system: EPLC-272H
How it was run: as §1

NCI-H1395 = test system: NCI-H1395
How it was run: as §1

CAL-12T = test system: CAL-12T
How it was run: as §1

NCI-H1993 = test system: NCI-H1993
How it was run: as §1

NCI-H2170 = test system: NCI-H2170
How it was run: as §1

HOP-62 = test system: HOP-62
How it was run: as §1

NCI-H2085 = test system: NCI-H2085
How it was run: as §1

A-427 = test system: A-427
How it was run: as §1

LXF-289 = test system: LXF-289
How it was run: as §1

NCI-H3122 = test system: NCI-H3122
How it was run: as §1

NCI-H2087 = test system: NCI-H2087
How it was run: as §1

NCI-H647 = test system: NCI-H647
How it was run: as §1

RERF-LC-KJ = test system: RERF-LC-KJ
How it was run: as §1

Question: With `Cc1cnc(-c2cnc(NCCNc3ccc(C#N)cn3)nc2-c2ccc(Cl)cc2Cl)[nH]1` + CC(=O)Nc1cccc(-n2c(=O)n(C3CC3)c(=O)c3c(Nc4ccc(I)cc4F)n(C)c(=O)c(C)c32)c1 [Trametinib] (partner 0.02 µM) as the molecule, how does the relative viability (COR-L23; first compound 0.08 µM) read?
Answer: 0.763

Question: What about the relative viability (COR-L23; first compound 0.253 µM) of the same molecule?
Answer: 0.565

Question: What about the relative viability (COR-L23; first compound 0.8 µM) of the same molecule?
Answer: 0.642

Question: And the relative viability (COR-L23; first compound 2.53 µM)?
Answer: 0.585

Question: And the relative viability (COR-L 105; first compound 0.08 µM)?
Answer: 0.481

Question: What about the relative viability (COR-L 105; first compound 0.253 µM) of the same molecule?
Answer: 0.383

Question: And the relative viability (COR-L 105; first compound 0.8 µM)?
Answer: 0.324

Question: And the relative viability (COR-L 105; first compound 2.53 µM)?
Answer: 0.415

Question: And the relative viability (NCI-H596; first compound 0.08 µM)?
Answer: 0.877

Question: What about the relative viability (NCI-H596; first compound 0.253 µM) of the same molecule?
Answer: 0.704

Question: And the relative viability (NCI-H596; first compound 0.8 µM)?
Answer: 0.782

Question: And the relative viability (NCI-H596; first compound 2.53 µM)?
Answer: 0.91

Question: And the relative viability (LCLC-103H; first compound 0.08 µM)?
Answer: 0.686

Question: What about the relative viability (LCLC-103H; first compound 0.253 µM) of the same molecule?
Answer: 0.676

Question: What about the relative viability (LCLC-103H; first compound 0.8 µM) of the same molecule?
Answer: 0.631

Question: What about the relative viability (LCLC-103H; first compound 2.53 µM) of the same molecule?
Answer: 0.671

Question: And the relative viability (NCI-H1651; first compound 0.08 µM)?
Answer: 0.855

Question: And the relative viability (NCI-H1651; first compound 0.253 µM)?
Answer: 0.706

Question: What about the relative viability (NCI-H1651; first compound 0.8 µM) of the same molecule?
Answer: 0.74

Question: And the relative viability (NCI-H1651; first compound 2.53 µM)?
Answer: 0.864

Question: And the relative viability (SK-MES-1; first compound 0.08 µM)?
Answer: 0.548

Question: What about the relative viability (SK-MES-1; first compound 0.253 µM) of the same molecule?
Answer: 0.54

Question: What about the relative viability (SK-MES-1; first compound 0.8 µM) of the same molecule?
Answer: 0.676

Question: What about the relative viability (SK-MES-1; first compound 2.53 µM) of the same molecule?
Answer: 0.619

Question: What about the relative viability (NCI-H1975; first compound 0.08 µM) of the same molecule?
Answer: 0.35

Question: And the relative viability (NCI-H1975; first compound 0.253 µM)?
Answer: 0.383

Question: And the relative viability (NCI-H1975; first compound 0.8 µM)?
Answer: 0.353

Question: What about the relative viability (NCI-H1975; first compound 2.53 µM) of the same molecule?
Answer: 0.339

Question: And the relative viability (PC-14; first compound 0.08 µM)?
Answer: 0.961

Question: And the relative viability (PC-14; first compound 0.253 µM)?
Answer: 0.713

Question: And the relative viability (PC-14; first compound 0.8 µM)?
Answer: 0.904

Question: What about the relative viability (PC-14; first compound 2.53 µM) of the same molecule?
Answer: 0.825

Question: And the relative viability (NCI-H2023; first compound 0.08 µM)?
Answer: 0.647

Question: And the relative viability (NCI-H2023; first compound 0.253 µM)?
Answer: 0.537

Question: And the relative viability (NCI-H2023; first compound 0.8 µM)?
Answer: 0.712

Question: And the relative viability (NCI-H2023; first compound 2.53 µM)?
Answer: 0.798

Question: And the relative viability (NCI-H650; first compound 0.08 µM)?
Answer: 1.17

Question: And the relative viability (NCI-H650; first compound 0.253 µM)?
Answer: 0.989

Question: And the relative viability (NCI-H650; first compound 0.8 µM)?
Answer: 1.29

Question: And the relative viability (NCI-H650; first compound 2.53 µM)?
Answer: 0.988

Question: And the relative viability (EPLC-272H; first compound 0.08 µM)?
Answer: 0.26

Question: What about the relative viability (EPLC-272H; first compound 0.253 µM) of the same molecule?
Answer: 0.298

Question: And the relative viability (EPLC-272H; first compound 0.8 µM)?
Answer: 0.314

Question: What about the relative viability (EPLC-272H; first compound 2.53 µM) of the same molecule?
Answer: 0.296

Question: And the relative viability (NCI-H1395; first compound 0.08 µM)?
Answer: 1.22

Question: What about the relative viability (NCI-H1395; first compound 0.253 µM) of the same molecule?
Answer: 0.715

Question: And the relative viability (NCI-H1395; first compound 0.8 µM)?
Answer: 1.03

Question: What about the relative viability (NCI-H1395; first compound 2.53 µM) of the same molecule?
Answer: 0.924

Question: What about the relative viability (CAL-12T; first compound 0.08 µM) of the same molecule?
Answer: 0.357

Question: And the relative viability (CAL-12T; first compound 0.253 µM)?
Answer: 0.306

Question: What about the relative viability (CAL-12T; first compound 0.8 µM) of the same molecule?
Answer: 0.333

Question: And the relative viability (CAL-12T; first compound 2.53 µM)?
Answer: 0.348

Question: What about the relative viability (NCI-H1993; first compound 0.08 µM) of the same molecule?
Answer: 0.506

Question: And the relative viability (NCI-H1993; first compound 0.253 µM)?
Answer: 0.536

Question: And the relative viability (NCI-H1993; first compound 0.8 µM)?
Answer: 0.454

Question: And the relative viability (NCI-H1993; first compound 2.53 µM)?
Answer: 0.52

Question: What about the relative viability (NCI-H2170; first compound 0.08 µM) of the same molecule?
Answer: 1.02

Question: And the relative viability (NCI-H2170; first compound 0.8 µM)?
Answer: 0.929

Question: What about the relative viability (NCI-H2170; first compound 2.53 µM) of the same molecule?
Answer: 0.788

Question: What about the relative viability (HOP-62; first compound 0.08 µM) of the same molecule?
Answer: 0.401

Question: What about the relative viability (HOP-62; first compound 0.253 µM) of the same molecule?
Answer: 0.375

Question: And the relative viability (HOP-62; first compound 0.8 µM)?
Answer: 0.426

Question: What about the relative viability (HOP-62; first compound 2.53 µM) of the same molecule?
Answer: 0.426

Question: What about the relative viability (NCI-H2085; first compound 0.08 µM) of the same molecule?
Answer: 0.596

Question: And the relative viability (NCI-H2085; first compound 0.253 µM)?
Answer: 0.524

Question: And the relative viability (NCI-H2085; first compound 0.8 µM)?
Answer: 0.52

Question: What about the relative viability (NCI-H2085; first compound 2.53 µM) of the same molecule?
Answer: 0.604

Question: And the relative viability (A-427; first compound 0.08 µM)?
Answer: 0.814

Question: And the relative viability (A-427; first compound 0.253 µM)?
Answer: 0.792

Question: What about the relative viability (A-427; first compound 0.8 µM) of the same molecule?
Answer: 0.827

Question: And the relative viability (A-427; first compound 2.53 µM)?
Answer: 0.837

Question: And the relative viability (LXF-289; first compound 0.08 µM)?
Answer: 0.704

Question: What about the relative viability (LXF-289; first compound 0.253 µM) of the same molecule?
Answer: 0.6

Question: What about the relative viability (LXF-289; first compound 0.8 µM) of the same molecule?
Answer: 0.674

Question: What about the relative viability (LXF-289; first compound 2.53 µM) of the same molecule?
Answer: 0.69

Question: What about the relative viability (NCI-H3122; first compound 0.08 µM) of the same molecule?
Answer: 0.262

Question: And the relative viability (NCI-H3122; first compound 0.8 µM)?
Answer: 0.246

Question: And the relative viability (NCI-H3122; first compound 2.53 µM)?
Answer: 0.233

Question: What about the relative viability (NCI-H2087; first compound 0.08 µM) of the same molecule?
Answer: 0.203

Question: What about the relative viability (NCI-H2087; first compound 0.8 µM) of the same molecule?
Answer: 0.214

Question: And the relative viability (NCI-H2087; first compound 2.53 µM)?
Answer: 0.177

Question: And the relative viability (NCI-H647; first compound 0.08 µM)?
Answer: 0.606

Question: And the relative viability (NCI-H647; first compound 0.253 µM)?
Answer: 0.401

Question: And the relative viability (NCI-H647; first compound 0.8 µM)?
Answer: 0.498

Question: And the relative viability (NCI-H647; first compound 2.53 µM)?
Answer: 0.601

Question: What about the relative viability (RERF-LC-KJ; first compound 0.08 µM) of the same molecule?
Answer: 0.951

Question: And the relative viability (RERF-LC-KJ; first compound 0.253 µM)?
Answer: 0.847

Question: And the relative viability (RERF-LC-KJ; first compound 0.8 µM)?
Answer: 0.832

Question: And the relative viability (RERF-LC-KJ; first compound 2.53 µM)?
Answer: 0.771
